We go through two compounds from patent publication US5910575A, “Immunoassay and monoclonal antibodies for urinary cortisol” (Immunotech, priority 1995, dated 1999).

The subject of test [1] is anti-cortisol monoclonal antibody Immu 473 (IMMU-473, CNCM I-1532), obtained against the immunogen cortisol-3-CMO (syn)-BSA. As to the kind of experiment: Displacement of the cortisol-3-CMO (anti)-[125I] iodohistamine tracer from the monoclonal antibody (liquid phase radioimmunoassay). In kind it is binding, mouse. As to the method: (§1) Selection is carried out by a liquid phase radioimmunoassay technique starting with the culture supernatant. The supernatants possibly containing anti-cortisol antibodies are incubated with a solution of radioactive cortisol (tritiated cortisol or cortisol derivative labelled with radioactive iodine: cortisol-3-CMO (anti)-[^125 I] iodohistamine). If anti-cortisol antibodies are present, they will bind the radioactive steroid. After incubation with charcoal-dextran and centrifugation to remove the free radioactivity and all the small molecules not fixed to the antibodies, a sample of the supernatant (bound fraction) is removed and counted.
(§2) The affinities of the monoclonal antibodies are measured by displacement of the cortisol-3-CMO (anti)-[^125 I] iodohistamine tracer with the two labelling precursors: cortisol-3-CMO (anti)-histamine and cortisol-3-CMO (syn)-histamine. The affinity is estimated (in the form of the IC50 value) according to the concentration displacing half of the tracer, since the tracer is present in a small quantity compared with the other constituents.

Test [2] relates to anti-cortisol monoclonal antibody Immu 482, obtained against the immunogen cortisol-3-CMO (syn)-BSA. The test is described as above. It counts as binding, mouse. As to the method:
as §1, §2

Where [3] appears, read: IC50 of cortisol-3-CMO (anti)-histamine divided by IC50 of cortisol-3-CMO (syn)-histamine.
[4] abbreviates: tracer cortisol-3-CMO (anti)-[125I] iodohistamine, concentration displacing half of the tracer.

In the case of `C[C@]12CC/C(=N/OCC(=O)NCCc3c[nH]cn3)C=C1CC[C@@H]1[C@@H]2[C@@H](O)C[C@@]2(C)[C@H]1CC[C@]2(O)C(=O)CO` [Cortisol-3-CMO (syn)-histamine, cortisol-3-carboxymethyloxime (syn)-histamine], the “Ratio IC50 anti/IC50 syn” value is listed as 2.73 in test [1] (setting [3]) and 2.66 in test [2] (setting [3]). In addition, the “Displacement of the tracer by Cortisol-3-CMO (syn)-histamine IC50” value in test [1] (setting [4]) came to 0.182 ng/mL; in test [2] (setting [4]), 0.176 ng/mL.
`C[C@]12CC/C(=N\OCC(=O)NCCc3c[nH]cn3)C=C1CC[C@@H]1[C@@H]2[C@@H](O)C[C@@]2(C)[C@H]1CC[C@]2(O)C(=O)CO` [Cortisol-3-CMO (anti)-histamine, cortisol-3-carboxymethyloxime (anti)-histamine]: the “Displacement of the tracer by Cortisol-3-CMO (anti)-histamine IC50” value in test [1] (setting [4]) came to 0.496 ng/mL; in test [2] (setting [4]) it was 0.468 ng/mL.
